Data on two compounds can be found in US10441594B2, “Methods of making quinoa leachates and uses thereof” (priority 2013, dated 2019).

The subject of assay [1] is diet-induced obese, hyperglycemic mice. Particulars: 10 mg/kg body weight for 13 wk; cited from earlier work.
Assay [2] has as its system diet-induced obese, hyperglycemic mice (C57BL/6J). Put plainly: Acute hypoglycemic study in diet-induced obese mice (fasting blood glucose). In kind it is in vivo. Particulars: 300 mg/kg oral. The method, then: An acute hypoglycemic study in diet-induced obese mice was performed as described previously (Cheng et al., Food Chem 135: 2994-3002, 2012, incorporated herein by reference). Briefly, five-week-old male C57Bl/6J mice (Jackson Labs), acclimated for 1 week with ad libitum access to chow (Purina, No. 5014) and water, and maintained on a very high-fat diet (VHFD) containing 60% fat-derived calories (D12492; Research Diets) for an additional 15 weeks to induce obesity, insulin resistance, and hyperglycemia. Food intake and body weight were monitored weekly. Following a 4-hour fasting period, fasting blood glucose (FBG) was measured using an AlphaTRAK® handheld glucometer (Abbott Labs, Inc.), and mice were randomly divided into FBG-balanced experimental groups.
Quinoa leachate (QL) was formulated in 70% Labrasol® (Gattefossé Corp., Paramus, N.J.). The biological activity of QL was tested using an oral ingestion of 0.25 ml per 50 g body weight of vehicle (70% Labrasol®) or QL (250 and 500 mg/kg) (n=7). Metformin® (300 mg/kg, dissolved in water) was administered as a positive control. FBG was reassessed 4 hours post-treatment. Mean FBG values before and after treatment were calculated for each group and compared using paired t-tests in Microsoft Excel. Additionally, final % FBG (final FBG/initial FBG×100) of each mouse was calculated 4 hours post-treatment. […]

Structures are written as SMILES.

Turning to `CC(C)(O)CC[C@@H](O)[C@](C)(O)[C@H]1CC[C@@]2(O)C3=CC(=O)[C@@H]4C[C@@H](O)[C@@H](O)C[C@]4(C)[C@H]3CC[C@]12C` [20-HE, 20-hydroxyecdysone], in assay [1], the blood glucose levels entry is “significantly lowered blood glucose levels” and the “reduction of adiposity compared with control” value is given as 41%.
In the case of `CN(C)C(=N)N=C(N)N` [Metformin], in assay [2] (4 hours), the “hypoglycemic effect compared with control (1-way ANOVA, Dunnett's post hoc test)” value is on record as “significant hypoglycemic effects compared with control”. For the same compound, the “FBG levels 4 hours after oral administration versus before treatment (paired t-test)” value in assay [2] (positive control) is reported as “significantly lowered FBG levels”.
